Data published in ChEMBL document CHEMBL1129837, “Quantitative structure-activity relationships of benzoyliminothiadiazoline derivatives as angiotensin II receptor antagonists” (Bioorg Med Chem Lett, 1997).

Target: T1, Type-1 angiotensin II receptor B (Rattus norvegicus, UniProt P29089)
T1 sequence (P29089 whole entry): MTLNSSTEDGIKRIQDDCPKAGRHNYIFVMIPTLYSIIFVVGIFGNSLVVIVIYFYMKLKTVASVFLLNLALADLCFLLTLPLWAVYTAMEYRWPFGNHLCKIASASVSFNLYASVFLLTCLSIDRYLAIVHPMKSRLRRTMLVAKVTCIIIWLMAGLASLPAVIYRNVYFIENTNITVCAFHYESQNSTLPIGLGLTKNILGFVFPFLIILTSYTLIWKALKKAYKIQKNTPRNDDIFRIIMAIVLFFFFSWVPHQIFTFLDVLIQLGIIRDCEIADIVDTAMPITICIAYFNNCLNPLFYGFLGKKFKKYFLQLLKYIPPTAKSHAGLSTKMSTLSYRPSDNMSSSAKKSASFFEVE
Test: Inhibition of binding of [125I]All at the angiotensin II type 1 receptor (AT1 receptor) in rat liver membranes
Assay type: cell membranes, Membrane

| SMILES | Ki |
| --- | --- |
| CCc1nn(Cc2ccc(-c3ccccc3-c3nn[nH]n3)cc2)/c(=N/C(=O)c2ccc(C(F)(F)F)cc2)s1 | 557 nM |
| CCc1nn(Cc2ccc(-c3ccccc3-c3nn[nH]n3)cc2)/c(=N/C(=O)c2ccc(C)cc2)s1 | 48 nM |
| CCc1nn(Cc2ccc(-c3ccccc3-c3nn[nH]n3)cc2)/c(=N/C(=O)c2cccc(C)c2)s1 | 79.4 nM |
| CCc1nn(Cc2ccc(-c3ccccc3-c3nn[nH]n3)cc2)/c(=N/C(=O)c2ccc([N+](=O)[O-])cc2)s1 | 141 nM |
| CCc1nn(Cc2ccc(-c3ccccc3-c3nn[nH]n3)cc2)/c(=N/C(=O)c2ccccc2[N+](=O)[O-])s1 | 3.23 nM |
| CCc1nn(Cc2ccc(-c3ccccc3-c3nn[nH]n3)cc2)/c(=N/C(=O)c2cccc(F)c2)s1 | 134 nM |
| Cc1nn(Cc2ccc(-c3ccccc3-c3nn[nH]n3)cc2)/c(=N/C(=O)c2ccccc2C(=O)O)s1 | 2.69 nM |
| CCc1nn(Cc2ccc(-c3ccccc3-c3nn[nH]n3)cc2)/c(=N/C(=O)c2ccc(OC)cc2)s1 | 28 nM |
| CCc1nn(Cc2ccc(-c3ccccc3-c3nn[nH]n3)cc2)/c(=N/C(=O)c2ccccc2C(F)(F)F)s1 | 6 nM |
| CCc1nn(Cc2ccc(-c3ccccc3-c3nn[nH]n3)cc2)/c(=N/C(=O)c2ccccc2)s1 | 36 nM |
| CCc1nn(Cc2ccc(-c3ccccc3-c3nn[nH]n3)cc2)/c(=N/C(=O)c2cccc(Cl)c2)s1 | 190 nM |
| CCc1nn(Cc2ccc(-c3ccccc3-c3nn[nH]n3)cc2)/c(=N/C(=O)c2ccc(Br)cc2)s1 | 320 nM |
| CCc1nn(Cc2ccc(-c3ccccc3-c3nn[nH]n3)cc2)/c(=N/C(=O)c2ccc(F)cc2)s1 | 102 nM |
| CCc1nn(Cc2ccc(-c3ccccc3-c3nn[nH]n3)cc2)/c(=N/C(=O)c2ccc(Cl)cc2)s1 | 330 nM |
| CCc1nn(Cc2ccc(-c3ccccc3-c3nn[nH]n3)cc2)/c(=N/C(=O)c2cccc(C(F)(F)F)c2)s1 | 447 nM |
| CCc1nn(Cc2ccc(-c3ccccc3-c3nn[nH]n3)cc2)/c(=N/C(=O)c2cccc(Br)c2)s1 | 300 nM |
| CCc1nn(Cc2ccc(-c3ccccc3-c3nn[nH]n3)cc2)/c(=N/C(=O)c2ccccc2C(=O)O)s1 | 0.619 nM |
| CCc1nn(Cc2ccc(-c3ccccc3-c3nn[nH]n3)cc2)/c(=N/C(=O)c2cccc([N+](=O)[O-])c2)s1 | 141 nM |
| CCc1nn(Cc2ccc(-c3ccccc3-c3nn[nH]n3)cc2)/c(=N/C(=O)c2cccc(OC)c2)s1 | 49 nM |

Further lines, results first:

| Ki | SMILES |
| --- | --- |
| 18 nM | Cc1nn(Cc2ccc(-c3ccccc3-c3nn[nH]n3)cc2)/c(=N/C(=O)c2ccccc2Cl)s1 |
| 35.9 nM | CCc1nn(Cc2ccc(-c3ccccc3-c3nn[nH]n3)cc2)/c(=N/C(=O)c2ccccc2C)s1 |
| 3.86 nM | CCc1nn(Cc2ccc(-c3ccccc3-c3nn[nH]n3)cc2)/c(=N/C(=O)c2ccccc2I)s1 |
| 15.1 nM | O=C(/N=c1\sc(C2CC2)nn1Cc1ccc(-c2ccccc2-c2nn[nH]n2)cc1)c1ccccc1Cl |
| 7.24 nM | CCc1nn(Cc2ccc(-c3ccccc3-c3nn[nH]n3)cc2)/c(=N/C(=O)c2ccccc2F)s1 |
| 200 nM | CCCCc1nn(Cc2ccc(-c3ccccc3-c3nn[nH]n3)cc2)/c(=N/C(=O)c2ccccc2Cl)s1 |
| 22 nM | CCCc1nn(Cc2ccc(-c3ccccc3-c3nn[nH]n3)cc2)/c(=N/C(=O)c2ccccc2Cl)s1 |
| 3.39 nM | CCc1nn(Cc2ccc(-c3ccccc3-c3nn[nH]n3)cc2)/c(=N/C(=O)c2ccccc2Cl)s1 |
| 3.47 nM | CCc1nn(Cc2ccc(-c3ccccc3-c3nn[nH]n3)cc2)/c(=N/C(=O)c2ccccc2Br)s1 |
| 2.5 nM | CCc1nn(Cc2ccc(-c3ccccc3-c3nn[nH]n3)cc2)/c(=N/C(=O)c2ccccc2OC)s1 |
| 2 nM | CCCc1nn(Cc2ccc(-c3ccccc3-c3nn[nH]n3)cc2)/c(=N/C(=O)c2ccccc2C(=O)O)s1 |
